Values quoted from earlier work in publication PMC10817097, “Caffeic Acid Phosphanium Derivatives: Potential Selective Antitumor, Antimicrobial and Antiprotozoal Agents” (International Journal of Molecular Sciences, 2024).

Columns and labels:
Parameters in all cases: method as in PMID 36771693
[1] = test system: HeLa (human cervical adenocarcinoma); conditions: standard; cited from earlier work
[2] = test system: HCT116 (human colorectal adenocarcinoma); conditions: HCT116, standard; cited from earlier work
[3] = test system: MDA-MB-231 (human mammary gland adenocarcinoma); conditions: MDA-MB-231, standard; cited from earlier work
[4] = test system: MCF-7 (human breast adenocarcinoma); conditions: MCF-7, standard; cited from earlier work
[5] = test system: A2058 (human metastatic melanoma); conditions: A2058, standard; cited from earlier work
[6] = test system: PANC-1 (human pancreatic adenocarcinoma); conditions: PANC-1, standard; cited from earlier work
[7] = test system: Jurkat (human leukemic T cell lymphoma); conditions: standard; cited from earlier work
[8] = test system: NIH 3T3 (murine fibroblasts); conditions: NIH 3T3 control cells, standard; cited from earlier work
[9] = test system: MCF-10A cell line (human mammary gland epithelial cells); conditions: MCF-10A control cells, standard; cited from earlier work

SMILES: N.N.[Cl][Pt][Cl] [CisPt, cisplatin]
- IC50 [1]: 35.4 µM
- IC50 [2]: 7.4 µM
- IC50 [3]: 7.1 µM
- IC50 [4]: 29.7 µM
- IC50 [5]: 21.5 µM
- IC50 [6]: 16.5 µM
- IC50 [7]: 6.3 µM
- IC50 [8]: 40.6 µM
- IC50 [9]: 25.9 µM
